According to PubChem BioAssay (NCI):
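Growth conditions: 96-well plates. Treatment: test compound, 48 hours, 5 concentrations. Analysis: linear interpolation between bracketing concentrations; unreached endpoints set to highest concentration. GI50 marks 50% less growth. TGI denotes the concentration required for complete inhibition of growth.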

Columns and labels:
Experiment in all cases: NCI-60 cell line screen, 48 h
RXF 393 renal = tested on: RXF 393 renal
KM12 colon = tested on: KM12 colon
HL-60(TB) leukemia = tested on: HL-60(TB) leukemia
IGROV1 ovarian = tested on: IGROV1 ovarian
RPMI-8226 leukemia = tested on: RPMI-8226 leukemia
T-47D breast = tested on: T-47D breast
HOP-62 NSCLC = tested on: HOP-62 NSCLC
786-0 renal = tested on: 786-0 renal
OVCAR-3 ovarian = tested on: OVCAR-3 ovarian
NCI-H460 lung = tested on: NCI-H460 lung

Row | SMILES | TGI (RXF 393 renal) | TGI (KM12 colon) | TGI (HL-60(TB) leukemia) | TGI (IGROV1 ovarian) | TGI (RPMI-8226 leukemia) | TGI (T-47D breast) | TGI (HOP-62 NSCLC) | TGI (786-0 renal) | TGI (OVCAR-3 ovarian) | TGI (NCI-H460 lung) | GI50 (RXF 393 renal) | GI50 (KM12 colon) | GI50 (HL-60(TB) leukemia) | GI50 (IGROV1 ovarian) | GI50 (RPMI-8226 leukemia) | GI50 (T-47D breast) | GI50 (HOP-62 NSCLC) | GI50 (786-0 renal) | GI50 (OVCAR-3 ovarian) | GI50 (NCI-H460 lung)
1 | Nc1nc(=O)c2[nH]cnc2n1O | > 100 µM | > 100 µM | > 100 µM | > 100 µM | > 100 µM | > 100 µM | > 100 µM | > 100 µM | > 100 µM | > 100 µM |  |  |  |  |  |  |  |  |  | 
2 | O=c1[nH]ccc2nc(N3CCC(O)CC3)nc(Nc3ccc(N4CCOCC4)cc3)c12 | 7.5 µM | > 100 µM | > 100 µM | > 100 µM | > 100 µM | > 100 µM | > 100 µM | > 100 µM | > 100 µM | > 100 µM | 1.74 µM | 0.055 µM | > 100 µM | 0.584 µM | > 100 µM | > 100 µM | 5.32 µM | > 22.6 µM | 29.1 µM | 2.38 µM
3 | COc1ccc(-c2cc(=O)c3c(OC)c(O)c(OC)cc3o2)cc1 | > 100 µM |  | > 100 µM | > 100 µM | 99.3 µM | > 100 µM | > 100 µM | > 100 µM | > 100 µM | > 100 µM |  |  |  |  |  |  |  |  |  | 
4 | O=C(/C=C/c1ccccc1)Nc1ncc(Cc2ccccc2)s1 | 1.59 µM | 13 µM | 0.609 µM | > 64.5 µM | > 28 µM | > 100 µM | > 39 µM | 10.7 µM | 1.44 µM | 5.01 µM | 0.267 µM | 0.149 µM | 0.212 µM | 0.491 µM | 0.309 µM | 0.413 µM | 0.398 µM | 0.598 µM | 0.258 µM | 0.289 µM
5 | O=c1ncc(I)c[nH]1 | > 100 µM | > 100 µM | > 100 µM | > 100 µM | > 100 µM | > 100 µM | > 100 µM | > 100 µM | > 100 µM | > 100 µM | > 100 µM | > 100 µM | > 100 µM | > 100 µM | > 100 µM | > 100 µM | > 100 µM | > 100 µM | > 100 µM | > 100 µM
6 | Cc1ccc(C(=O)Nc2ccc(CN3CCN(C)CC3)c(C(F)(F)F)c2)cc1C#Cc1cnc(N)c2ccc(C#N)cc12 | 5.82 µM | 17.4 µM | > 50 µM | 9.55 µM | 19.4 µM | > 50 µM | 22.9 µM | 3.79 µM | 19.2 µM | 16.6 µM | 0.0407 µM | 0.304 µM | 0.338 µM | 0.0188 µM | 1.08 µM | 3.57 µM | 1.7 µM | 0.426 µM | 1.25 µM | 0.557 µM
7 | COc1ccc(-c2c(-c3cc4c(c(OC)c3OC)OCO4)noc2N)cc1 |  | > 100 µM | 1.46 µM | > 100 µM | 50.9 µM | > 100 µM | > 100 µM | 41.6 µM | 0.812 µM | > 45.2 µM |  | 0.179 µM | 0.214 µM | 1.1 µM | 0.503 µM | 0.568 µM | 0.457 µM | 0.49 µM | 0.184 µM | 0.379 µM
